# Source: patent US20260008770A1, “CBL-B INHIBITORS AND METHODS OF USES THEREOF” (Insilico Medicine IP Limited, priority 2022, published 2026)
# Target: Cbl-b protein (CBL-B, GST-Tag) (Homo sapiens (Human), UniProt Q13191)
# Assay: HTRF based binding assay, affinity to Cbl-b protein
# Conditions: not given
# Sequence of Cbl-b protein (CBL-B, GST-Tag) (Q13191 whole entry): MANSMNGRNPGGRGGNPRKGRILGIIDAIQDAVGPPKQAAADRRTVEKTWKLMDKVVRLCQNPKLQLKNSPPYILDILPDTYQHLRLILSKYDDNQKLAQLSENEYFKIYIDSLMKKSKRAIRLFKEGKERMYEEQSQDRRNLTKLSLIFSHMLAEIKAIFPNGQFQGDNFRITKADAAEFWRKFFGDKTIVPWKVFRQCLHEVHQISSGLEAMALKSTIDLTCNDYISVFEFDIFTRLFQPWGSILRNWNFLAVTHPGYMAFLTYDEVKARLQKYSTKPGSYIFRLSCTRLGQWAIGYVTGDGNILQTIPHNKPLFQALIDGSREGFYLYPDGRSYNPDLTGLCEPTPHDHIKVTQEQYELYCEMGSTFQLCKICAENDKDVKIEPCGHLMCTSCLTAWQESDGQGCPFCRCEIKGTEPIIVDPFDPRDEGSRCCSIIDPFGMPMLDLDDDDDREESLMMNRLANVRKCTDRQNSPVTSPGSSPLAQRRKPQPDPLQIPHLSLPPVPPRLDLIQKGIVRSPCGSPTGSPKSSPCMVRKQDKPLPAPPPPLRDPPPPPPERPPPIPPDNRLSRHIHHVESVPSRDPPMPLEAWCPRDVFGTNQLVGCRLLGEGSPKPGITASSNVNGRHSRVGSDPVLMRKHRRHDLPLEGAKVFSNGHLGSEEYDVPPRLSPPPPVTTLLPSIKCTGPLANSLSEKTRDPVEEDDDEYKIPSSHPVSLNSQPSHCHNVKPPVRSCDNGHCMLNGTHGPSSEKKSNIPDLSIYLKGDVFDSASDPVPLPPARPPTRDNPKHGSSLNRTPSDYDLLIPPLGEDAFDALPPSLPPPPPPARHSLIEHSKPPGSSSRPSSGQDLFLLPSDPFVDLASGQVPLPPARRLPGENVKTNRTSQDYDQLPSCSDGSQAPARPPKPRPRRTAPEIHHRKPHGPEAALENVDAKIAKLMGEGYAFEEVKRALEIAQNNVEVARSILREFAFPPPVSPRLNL
row,SMILES,IC50
1,"C[C@H]1CCCN(Cc2cc(C(F)(F)F)c3cnn(-c4cc([C@]5(c6nncn6C)C[C@@H](C)C5)ccn4)c(=O)c3c2)C1 (single isomer, unassigned) [Example 55]",500 to 1000 nM
2,"C[C@H]1CCCN(Cc2cc(C(F)(F)F)c3cn(-c4cc([C@]5(c6nncn6C)C[C@@H](C)C5)ccn4)nc3c2)C1 (single isomer, unassigned) [Example 58]",20 to 50 nM
3,"CC1CC(c2cccc(N3CCc4c(cc(CN5CC[C@H](F)C5)cc4C(F)(F)F)C3=O)c2)(c2nncn2C)C1 (stereo partly drawn) [Example 1, (S)-7-((3-fluoropyrrolidin-1-yl)methyl)-2-(3-(3-methyl-1-(4-methyl-4H-1,2,4-triazol-3-yl)cyclobutyl)phenyl)-5-(trifluoromethyl)-3,4-dihydroisoquinolin-1(2H)-one]",50 to 500 nM
4,"CC1CC(c2cccc(-c3n[nH]c4c(CN5CCC[C@H](C)C5)cc(C(F)(F)F)nc34)c2)(c2nncn2C)C1 (stereo partly drawn) [Example 5, (S)-3-(3-(3-methyl-1-(4-methyl-4H-1,2,4-triazol-3-yl)cyclobutyl)phenyl)-7-((3-methylpiperidin-1-yl)methyl)-5-(trifluoromethyl)-1H-pyrazolo[4,3-b]pyridine]",50 to 500 nM
5,CC1CC(c2cccc(-n3ncc4c(C(F)(F)F)cc(CN5CCC[C@H](C)C5)cc4c3=O)c2)(c2nncn2C)C1 (stereo partly drawn) [Example 6],20 to 50 nM
6,CC1CC(c2cccc(-c3nc4cc(CN5CCC[C@H](C)C5)cc(C(F)(F)F)c4n3C)c2)(c2nncn2C)C1 (stereo partly drawn) [Example 8],50 to 500 nM
7,CC1CC(c2cccc(-n3nc(C(F)(F)F)c4ccc(CN5CCC[C@H](C)C5)cc4c3=O)c2)(c2nncn2C)C1 (stereo partly drawn) [Example 9],50 to 500 nM
8,CC1CC(c2cccc(-c3nc4cc(CN5CCO[C@H](C)C5)cc(C(F)(F)F)c4s3)c2)(c2nncn2C)C1 (stereo partly drawn) [Example 11],50 to 500 nM
9,C[C@H]1CCCN(Cc2cc(C(F)(F)F)c3cnn(-c4cccc(C5(Cc6nncn6C)COC5)c4)c(=O)c3c2)C1 [Example 13],500 to 1000 nM
10,CC1CC(c2cccc(-n3ncc4c(C(F)(F)F)cc(CN5CCC(F)(F)[C@H](C)C5)cc4c3=O)c2)(c2nncn2C)C1 (stereo partly drawn) [Example 14],50 to 500 nM
11,CC1CC(c2cccc(-c3nc4cc(CN5CCC[C@H](C)C5)cc(C(F)(F)F)c4[nH]3)c2)(c2nncn2C)C1 (stereo partly drawn) [Example 17],50 to 500 nM
12,C[C@H]1CCCN(Cc2cc(C(F)(F)F)c3cnn(-c4cccc([C@H](c5nncn5C)C5CCC5)c4)c(=O)c3c2)C1 [Example 19],50 to 500 nM
13,C#CC1CCCN(Cc2cc(C(F)(F)F)c3cnn(-c4cccc(C5(c6nncn6C)CC(C)C5)c4)c(=O)c3c2)C1 (stereo not drawn) [Example 20],500 to 1000 nM
14,CC1=CCCN(Cc2cc(C(F)(F)F)c3cnn(-c4cccc(C5(c6nncn6C)CC(C)C5)c4)c(=O)c3c2)C1 (stereo not drawn) [Example 21],50 to 500 nM
15,CC1CC(c2cccc(-n3ncc4c(C(F)(F)F)cc(CN5CCCCC5)cc4c3=O)c2)(c2nncn2C)C1 (stereo not drawn) [Example 22],50 to 500 nM
16,CC1CC(c2cccc(NC(=O)c3cc(CN4CCC[C@H](C)C4)cc4c3OC(F)(F)O4)c2)(c2nncn2C)C1 (stereo partly drawn) [Example 25],20 to 50 nM
17,C[C@H]1CCCN(Cc2cc(C(=O)Nc3cccc([C@H](c4nncn4C)C4COC4)c3)cc(C(F)(F)F)c2)C1 [Example 27],50 to 500 nM
18,CC1CC(c2cccc(NC(=O)c3cc(CN4CCC[C@H](C)C4)cc(C(F)(F)F)c3)c2)(c2nncn2C)C1 (stereo partly drawn) [Example 30],20 to 50 nM
19,C[C@H]1CCCN(Cc2cc(C(=O)Nc3cccc(C(c4nncn4C)C4CCC4)c3)cc(C(F)(F)F)c2)C1 (stereo partly drawn) [Example 31],50 to 500 nM
20,COCC1CC(c2cccc(-n3cc4c(C(F)(F)F)cc(CN5CCC[C@H](C)C5)cc4n3)c2)(c2nncn2C)C1 (stereo partly drawn) [Example 33],20 to 50 nM
21,CC1CN(Cc2cc(C(F)(F)F)c3ncn(-c4cc([C@]5(c6nncn6C)C[C@@H](C)C5)ccn4)c(=O)c3c2)CCC1(F)F (stereo partly drawn) [Example 34],20 to 50 nM
22,C[C@H]1CCCN(Cc2cc(C(F)(F)F)c3ncn(-c4cc(C5(Cc6nncn6C)COC5)ccn4)c(=O)c3c2)C1 [Example 35],50 to 500 nM
23,Cn1cnnc1[C@]1(c2ccnc(-n3ncc4c(C(F)(F)F)cc(CN5CCC6(CC6)C5)cc4c3=O)c2)C[C@H](C)C1 [Example 36],20 to 50 nM
24,Cn1cnnc1[C@]1(c2ccnc(-n3ncc4c(C(F)(F)F)cc(CN5CCCC6(CC6)C5)cc4c3=O)c2)C[C@H](C)C1 [Example 37],50 to 500 nM
25,Cn1cnnc1[C@]1(c2ccnc(-n3ncc4c(C(F)(F)F)cc(CN5CCOC6(CCC6)C5)cc4c3=O)c2)C[C@H](C)C1 [Example 39],500 to 1000 nM
26,Cn1cnnc1[C@]1(c2cccc(-n3cc4c(C(F)(F)F)cc(CN5CCOC6(CCC6)C5)cc4n3)c2)C[C@H](C)C1 [Example 40],50 to 500 nM
27,CC1CC(c2cc(Cl)nc(-n3cnc4c(C(F)(F)F)cc(CN5CCC[C@H](C)C5)cc4c3=O)c2)(c2nncn2C)C1 (stereo partly drawn) [Example 41],20 to 50 nM
28,CNC(=O)c1cc(-n2cc3c(C(F)(F)F)cc(CN4CCC[C@H](C)C4)cc3n2)cc(C2(c3nncn3C)CC(C)C2)c1 (stereo partly drawn) [Example 43],50 to 500 nM

# Same assay, conditions: HTRF binding, CBL-B (GST-Tag), fluorescence labeled Cbl-b binding probe
row,SMILES,IC50
1,"CC1CC(c2cccc(-c3nc4cc(CN5CCC[C@H](C)C5)cc(C(F)(F)F)c4s3)c2)(c2nncn2C)C1 (stereo partly drawn) [Example 4, (S)-2-(3-(3-methyl-1-(4-methyl-4H-1,2,4-triazol-3-yl)cyclobutyl)phenyl)-5-((3-methylpiperidin-1-yl)methyl)-7-(trifluoromethyl)benzo[d]thiazole]",< 20 nM
2,CC1CC(c2cccc(-n3cc4c(C(F)(F)F)cc(CN5CCC[C@H](C)C5)cc4n3)c2)(c2nncn2C)C1 (stereo partly drawn) [Example 7],< 20 nM
3,CC1CC(c2cccc(-n3ncc4c(C(F)(F)F)cc(CN5CCO[C@H](C)C5)cc4c3=O)c2)(c2nncn2C)C1 (stereo partly drawn) [Example 10],> 1000 nM
4,CC1CC(c2cccc(-n3cc(C(F)(F)F)c4ccc(CN5CCC[C@H](C)C5)cc4c3=O)c2)(c2nncn2C)C1 (stereo partly drawn) [Example 12],< 20 nM
5,CC1CC(c2cccc(-n3ncc4c(C(F)(F)F)cc(CN5CCC(F)(F)[C@@H](C)C5)cc4c3=O)c2)(c2nncn2C)C1 (stereo partly drawn) [Example 15],> 1000 nM
6,C[C@H]1CCCN(Cc2cc(C(F)(F)F)c3sc(-c4cccc(C5(Cc6nncn6C)COC5)c4)nc3c2)C1 [Example 16],< 20 nM
7,C[C@H]1CCCN(Cc2cc(C(F)(F)F)c3cnn(-c4cccc([C@@H](c5nncn5C)C5CCC5)c4)c(=O)c3c2)C1 [Example 18],> 1000 nM
8,CC1CC(c2cccc(-n3ccc4c(C(F)(F)F)cc(CN5CCC[C@H](C)C5)cc4c3=O)c2)(c2nncn2C)C1 (stereo partly drawn) [Example 23],< 20 nM
9,CC1CC(c2cccc(NC(=O)c3cc(CN4CCC[C@H](C)C4)cc4c3OCCC4(F)F)c2)(c2nncn2C)C1 (stereo partly drawn) [Example 24],< 20 nM
10,C[C@H]1CCCN(Cc2cc(C(=O)Nc3cccc([C@@H](c4nncn4C)C4COC4)c3)cc(C(F)(F)F)c2)C1 [Example 26],> 1000 nM
11,C[C@H]1CCCN(Cc2cc(C(=O)Nc3cccc([C@]4(c5nncn5C)C[C@@H](C)C4)c3)c(F)c(C(F)(F)F)c2)C1 [Example 28],< 20 nM
12,C[C@H]1CCCN(Cc2cc(C(=O)Nc3cccc([C@]4(c5nncn5C)C[C@H](C)C4)c3)c(F)c(C(F)(F)F)c2)C1 [Example 29],< 20 nM
13,C#CC1CC(c2cccc(-n3cc4c(C(F)(F)F)cc(CN5CCC[C@H](C)C5)cc4n3)c2)(c2nncn2C)C1 (stereo partly drawn) [Example 32],< 20 nM
14,CC1CC(c2cc(OCF)nc(-n3ncc4c(C(F)(F)F)cc(CN5CCC[C@H](C)C5)cc4c3=O)c2)(c2nncn2C)C1 (stereo partly drawn) [Example 38],< 20 nM
